We go through 18 molecules from patent US10640497B2, “Microbiocidal oxadiazole derivatives” (SYNGENTA PARTICIPATIONS AG, priority 2015, dated 2020).

The structures appear in SMILES notation.

The test system of assay [1] is Puccinia recondita f. sp. tritici. Description: Fungicidal activity against Puccinia recondita f. sp. tritici, wheat, leaf disc preventative (brown rust). Format: in vivo. As to conditions: foliar, wheat leaf segments, preventative (inoculated 1 day after application), 7-9 days after application, compared to untreated control. The method, then:
(§1) Leaf disks or leaf segments of various plant species are cut from plants grown in a greenhouse. The cut leaf disks or segments are placed in multiwell plates (24-well format) onto water agar. The leaf disks are sprayed with a test solution before (preventative) or after (curative) inoculation. Compounds to be tested are prepared as DMSO solutions (max. 10 mg/ml) which are diluted to the appropriate concentration with 0.025% Tween20 just before spraying. The inoculated leaf disks or segments are incubated under defined conditions (temperature, relative humidity, light, etc.) according to the respective test system. A single evaluation of disease level is carried out 3 to 14 days after inoculation, depending on the pathosystem. Percent disease control relative to the untreated check leaf disks or segments is then calculated. Wheat leaf segments cv. Kanzler are placed on agar in multiwell plates (24-well format) and sprayed with the formulated test compound diluted in water. The leaf segments are inoculated with a spore suspension of the fungus 1 day after application. The inoculated leaf segments are incubated at 19° C. and 75% rh under a light regime of 12 h light/12 h darkness in a climate cabinet and the activity of a compound is assessed as percent disease control compared to untreated when an appropriate level of disease damage appears in untreated check leaf segments (7-9 days after application).

The test system of a further assay is Phakopsora pachyrhizi. Description: Fungicidal activity against Phakopsora pachyrhizi, soybean, leaf disc preventative (Asian soybean rust). As to conditions: foliar, 288 h, 12-14 days after application, compared to untreated control. Format: in vivo. The method, then: Leaf disks or leaf segments of various plant species are cut from plants grown in a greenhouse. The cut leaf disks or segments are placed in multiwell plates (24-well format) onto water agar. The leaf disks are sprayed with a test solution before (preventative) or after (curative) inoculation. Compounds to be tested are prepared as DMSO solutions (max. 10 mg/ml) which are diluted to the appropriate concentration with 0.025% Tween20 just before spraying. The inoculated leaf disks or segments are incubated under defined conditions (temperature, relative humidity, light, etc.) according to the respective test system. A single evaluation of disease level is carried out 3 to 14 days after inoculation, depending on the pathosystem. Percent disease control relative to the untreated check leaf disks or segments is then calculated. Soybean leaf disks are placed on water agar in multiwell plates (24-well format) and sprayed with the formulated test compound diluted in water. One day after application leaf discs are inoculated by spraying a spore suspension on the lower leaf surface. After an incubation period in a climate cabinet of 24-36 hours in darkness at 20° C. and 75% rh leaf disc are kept at 20° C. with 12 h light/day and 75% rh. The activity of a compound is assessed as percent disease control compared to untreated when an appropriate level of disease damage appears in untreated check leaf disks (12-14 days after application).

Assay [2] concerns Glomerella lagenarium (Colletotrichum lagenarium). Nature of the assay: Fungicidal activity against Glomerella lagenarium (Colletotrichum lagenarium), liquid culture, cucumber, preventative (anthracnose). As to conditions: Colletotrichum orbiculare, liquid culture (PDB), growth inhibition measured photometrically 3-4 days after application, compared to untreated control. The class given is cell-based. The method, then: Mycelia fragments or conidia suspensions of a fungus, prepared either freshly from liquid cultures of the fungus or from cryogenic storage, are directly mixed into nutrient broth. DMSO solutions of the test compound (max. 10 mg/ml) is diluted with 0.025% Tween20 by a factor of 50 and 10 μl of this solution is pipetted into a microtiter plate (96-well format). The nutrient broth containing the fungal spores/mycelia fragments is then added to give an end concentration of the tested compound. The test plates are incubated in the dark at 24° C. and 96% relative humidity. The inhibition of fungal growth is determined photometrically after 2 to 7 days, depending on the pathosystem, and percent antifungal activity relative to the untreated check is calculated. Conidia of the fungus from cryogenic storage are directly mixed into nutrient broth (PDB potato dextrose broth). After placing a (DMSO) solution of test compound into a microtiter plate (96-well format), the nutrient broth containing the fungal spores is added. The test plates are incubated at 24° C. and the inhibition of growth is measured photometrically 3-4 days after application.

The test system of assay [3] is Puccinia recondita f. sp. tritici. Nature of the assay: Fungicidal activity against Puccinia recondita f. sp. tritici, wheat, leaf disc curative (brown rust). As to conditions: foliar, 144 h, wheat leaf segments, curative (applied 1 day after inoculation), 6-8 days after application, compared to untreated control. Format: in vivo. The method, then:
as §1, with “plates (24-well format). The leaf” for “plates (24-well format) and sprayed with the formulated test compound diluted in water. The leaf”, “of the fungus. Plates are stored in darkness at 19° C. and 75% rh. The formulated test compound diluted in water is applied 1 day” for “of the fungus 1 day”, “day after inoculation. The leaf” for “day after application. The inoculated”, “inoculation. The leaf segments” for “application. The inoculated leaf segments”, “leaf segments (6-8 days after” for “leaf segments (7-9 days after”

With `O=C1CCCN1Cc1ccc(-c2noc(C(F)(F)F)n2)cc1` [Compound A-1, 1-[[4-[5-(trifluoromethyl)-1,2,4-oxadiazol-3-yl]phenyl]methyl]pyrrolidin-2-one], the pest or weed control at 200 ppm (in assay [1]; in the assay with Phakopsora pachyrhizi; in assay [3]) was no less than 80% throughout. Moreover, the inhibition of growth at 20 ppm in assay [2] was no less than 80%.
For `O=C1CCCCN1Cc1ccc(-c2noc(C(F)(F)F)n2)cc1` [Compound A-2, 1-[[4-[5-(trifluoromethyl)-1,2,4-oxadiazol-3-yl]phenyl]methyl]piperidin-2-one], the pest or weed control at 200 ppm (in assay [1]; in the assay on Phakopsora pachyrhizi; in assay [3]) was no less than 80% in each case.
On to `O=C1COCCN1Cc1ccc(-c2noc(C(F)(F)F)n2)cc1` [Compound A-3, 4-[[4-[5-(trifluoromethyl)-1,2,4-oxadiazol-3-yl]phenyl]methyl]morpholin-3-one], for which the pest or weed control at 200 ppm (in assay [1]; in the assay with Phakopsora pachyrhizi; in assay [3]) was no less than 80% in each case.
With `CC1(C)CON(Cc2ccc(-c3noc(C(F)(F)F)n3)cc2)C1=O` [Compound A-4, 4,4-dimethyl-2-[[4-[5-(trifluoromethyl)-1,2,4-oxadiazol-3-yl]phenyl]methyl]isoxazolidin-3-one], the pest or weed control at 200 ppm (in assay [1]; with Phakopsora pachyrhizi; in assay [3]) was no less than 80% throughout. The inhibition of growth at 20 ppm in assay [2] was no less than 80%.
In the case of `O=C1CCCN1Cc1ccc(-c2noc(C(F)(F)F)n2)cn1` [Compound A-28, 1-[[5-[5-(trifluoromethyl)-1,2,4-oxadiazol-3-yl]-2-pyridyl]methyl]pyrrolidin-2-one], the pest or weed control at 200 ppm in assay [1] and in assay [3] was no less than 80% throughout. The inhibition of growth at 20 ppm in assay [2] is no less than 80%.
Turning to `COCC(=O)N1CCN(Cc2ccc(-c3noc(C(F)(F)F)n3)cc2)C(=O)C1` [Compound A-31, 4-(2-methoxyacetyl)-1-[[4-[5-(trifluoromethyl)-1,2,4-oxadiazol-3-yl]phenyl]methyl]piperazin-2-one], the pest or weed control at 200 ppm in assay [1] and in assay [3] was no less than 80% throughout. Also, in assay [2], the inhibition of growth at 20 ppm was no less than 80%.
Molecule `O=C1CNCCN1Cc1ccc(-c2noc(C(F)(F)F)n2)cc1` [Compound A-36, 1-[[4-[5-(trifluoromethyl)-1,2,4-oxadiazol-3-yl]phenyl]methyl]piperazin-4-ium-2-one; chloride] gave a pest or weed control at 200 ppm in assay [1] of no less than 80%.
In the case of `O=C1CCCCN1Cc1ccc(-c2noc(C(F)(F)F)n2)c(F)c1` [Compound A-44, 1-[[3-fluoro-4-[5-(trifluoromethyl)-1,2,4-oxadiazol-3-yl]phenyl]methyl]piperidin-2-one], the pest or weed control at 200 ppm in assay [1] and in assay [3] was no less than 80% in each case. In assay [2], this molecule came in with an inhibition of growth at 20 ppm of no less than 80%.
On to `O=C1OCCN1Cc1ccc(-c2noc(C(F)(F)F)n2)cc1` [Compound A-45, 3-[[4-[5-(trifluoromethyl)-1,2,4-oxadiazol-3-yl]phenyl]methyl]oxazolidin-2-one], for which the pest or weed control at 200 ppm in assay [1] and in assay [3] was no less than 80% in each case. This molecule showed an inhibition of growth at 20 ppm in assay [2] of no less than 80%.
Molecule `CC1(C)CCCN(Cc2ccc(-c3noc(C(F)(F)F)n3)nc2)C1=O` [Compound A-52, 3,3-dimethyl-1-[[6-[5-(trifluoromethyl)-1,2,4-oxadiazol-3-yl]-3-pyridyl]methyl]piperidin-2-one] showed an inhibition of growth at 20 ppm in assay [2] of no less than 80%.
On to `CS(=O)(=O)N1CC(=O)N(Cc2ccc(-c3noc(C(F)(F)F)n3)cc2)C(=O)C1` [Compound A-59, 4-methylsulfonyl-1-[[4-[5-(trifluoromethyl)-1,2,4-oxadiazol-3-yl]phenyl]methyl]piperazine-2,6-dione], for which the pest or weed control at 200 ppm (in assay [1]; in the assay on Phakopsora pachyrhizi) was no less than 80% each time. In assay [2], this molecule displayed an inhibition of growth at 20 ppm of no less than 80%.
Turning to `CN(C)S(=O)(=O)N1CC(=O)N(Cc2ccc(-c3noc(C(F)(F)F)n3)cc2)C(=O)C1` [Compound A-60, N,N-dimethyl-3,5-dioxo-4-[[4-[5-(trifluoromethyl)-1,2,4-oxadiazol-3-yl]phenyl]methyl]piperazine-1-sulfonamide], the pest or weed control at 200 ppm (in assay [1]; in the assay with Phakopsora pachyrhizi) was no less than 80% each time.
`O=C1CNCC(=O)N1Cc1ccc(-c2noc(C(F)(F)F)n2)cc1` [Compound A-61, 1-[[4-[5-(trifluoromethyl)-1,2,4-oxadiazol-3-yl]phenyl]methyl]piperazin-4-ium-2,6-dione; chloride] showed an inhibition of growth at 20 ppm in assay [2] of no less than 80%.
With `O=C1CCCN1Cc1ccc(-c2noc(C(F)(F)F)n2)c(F)c1` [Compound A-63, 1-[[3-fluoro-4-[5-(trifluoromethyl)-1,2,4-oxadiazol-3-yl]phenyl]methyl]pyrrolidin-2-one], the pest or weed control at 200 ppm in assay [1] and in assay [3] was no less than 80% each time. In addition, in assay [2], the inhibition of growth at 20 ppm was no less than 80%.
With `CC1(C)CON(Cc2ccc(-c3noc(C(F)(F)F)n3)c(F)c2)C1=O` [Compound A-64, 2-[[3-fluoro-4-[5-(trifluoromethyl)-1,2,4-oxadiazol-3-yl]phenyl]methyl]-4,4-dimethyl-isoxazolidin-3-one], in assay [1], the pest or weed control at 200 ppm was no less than 80%. This molecule also showed an inhibition of growth at 20 ppm in assay [2] of no less than 80%.
Molecule `O=S1(=O)CCCN1Cc1ccc(-c2noc(C(F)(F)F)n2)cc1Cl` [Compound B-2, 2-[[2-chloro-4-[5-(trifluoromethyl)-1,2,4-oxadiazol-3-yl]phenyl]methyl]-1,2-thiazolidine 1,1-dioxide] had a pest or weed control at 200 ppm in assay [1] of no less than 80%. Besides, the inhibition of growth at 20 ppm in assay [2] is no less than 80%.
Regarding `CN1CCCN(Cc2ccc(-c3noc(C(F)(F)F)n3)cc2)S1(=O)=O` [Compound B-3, 2-methyl-6-[[4-[5-(trifluoromethyl)-1,2,4-oxadiazol-3-yl]phenyl]methyl]-1,2,6-thiadiazinane 1,1-dioxide], the pest or weed control at 200 ppm in assay [1] and in assay [3] was no less than 80% each time. The molecule further had an inhibition of growth at 20 ppm in assay [2] of no less than 80%.
Molecule `CN1CCCN(Cc2ccc(-c3noc(C(F)(F)F)n3)cc2Cl)S1(=O)=O` [Compound B-4, 2-[[2-chloro-4-[5-(trifluoromethyl)-1,2,4-oxadiazol-3-yl]phenyl]methyl]-6-methyl-1,2,6-thiadiazinane 1,1-dioxide] came in with an inhibition of growth at 20 ppm in assay [2] of no less than 80%.
